Results from publication PMC9489682, “Synthesis and comparative evaluation of ^177Lu-labeled PEG and non-PEG variant peptides as HER2-targeting probes” (Scientific Reports, 2022).
Read-outs that look alike come from different tables or passages of the source. Residues, ends and D or L forms follow the SMILES beside them. *: point of attachment. DOTA = O=C(O)CN1CCN(CC(=O)O)CCN(CC(=O)*)CCN(CC(=O)O)CC1; PEG5 = NCCOCCOCCOCCOCCOCCC(=O)O

How the values were obtained:
[1] = Biodistribution in SKBR3 tumor bearing SCID mice; format: in vivo; details: female, mouse, iv, 0.5 ug, total radioactivity, mean ± SD; for tissue to tissue ratio at 3 h: 3 h p.i.; for tissue to tissue ratio at 3 h / tissue to tissue ratio at 24 h / tissue to tissue ratio at 48 h: i.v. tail vein, 0.5 μg, 3.7 MBq; for tissue to tissue ratio at 24 h: 24 h p.i.; for tissue to tissue ratio at 48 h: 48 h p.i.
Experimental: Biodistribution studies of peptide tracers, [^177Lu]DOTA-A9 and [^177Lu]DOTA-PEG4-A9 were carried out in female SCID mice bearing human breast carcinoma, SKBR3 tumor xenografts. Tumor bearing mice (n = 3) were intravenously injected with peptide tracers (0.5 μg, 150 μL, 3.7 MBq) into the tail vein. Animals were sacrificed and dissected at 3 h, 24 h and 48 h post injection (p.i.). The radioactivity associated with each tissue was counted in a NaI (Tl) flat geometry detector and expressed as percentage injected dose per gram of tissue [% ID/g, mean ± standard deviation, n = 3/radiotracer].
Statistical analysis using the […] two-tailed Student’s t-test was performed to compare uptake values in tumor and major organs between [^177Lu]DOTA-A9 and [^177Lu]DOTA-PEG4-A9 animal groups; values of p < 0.05 were considered statistically significant.

HER2 = molecular target: T1, HER2 (Homo sapiens, UniProt P04626); assay: Saturation radioligand binding assay in SKBR3 cells; details: HER2 over expressing SKBR3 cells, 1 × 10^6 cells/well, 4–200 nM radiopeptide, 37 °C, 60 min, non-specific binding with unlabeled DOTA-A9, nonlinear regression, read-out: Binding affinity Kd
T1 construct: endogenous in cells; host or cells: SKBR3 human breast carcinoma cells
Experimental: The binding affinity of [^177Lu]DOTA-A9 and [^177Lu]DOTA-PEG4-A9 was determined by the saturation radioligand binding assay in HER2 over expressing SKBR3 cells. 1 × 10^6 cells/well were seeded in cell culture plates and incubated at 37 °C. Cells were treated with series of increasing concentration of the radiolabeled peptide (4–200 nM) and incubated at 37 °C for 60 min. For obtaining non-specific binding, cells were co-incubated with radiolabeled formulations along with unlabeled DOTA-A9 peptide. On completion of incubation, cells were washed with the ice-cold phosphate buffer saline (PBS). Cells with bound radioactivity were harvested with 1 N NaOH (1 mL) solution (at 37 °C for 3 min) and counted in a gamma counter. Kd value was calculated by the nonlinear regression algorithm (GraphPad Prism version 7.0). The Bmax value (nM) was converted to the number of HER2 receptors per cell.

Human serum stability = format: in vitro ADME; details: human serum 500 μL, pH 7.4, 37 °C, 6 h, 25 µL (3.7 MBq) radiopeptide, acetonitrile precipitation, RP-HPLC radiochromatogram
Experimental: For serum stability studies blood was allowed to clot (1 h) followed by centrifugation (2300×g, 10 min). Measurements were performed by incubation of radiopeptides (25 µL, 3.7 MBq) with human serum (500 μL, pH 7.4) at 37 °C. After 6 h incubation acetonitrile (500 μL) was added to the sample for protein precipitation. Subsequently the sample was centrifuged, supernatant was collected and radiochemical purity was analyzed by RP-HPLC.

U-87 MG tumors = details: in vivo; cited from earlier work
Experimental: Several Tc-99m-labeled peptides targeting HER2 receptors have also been studied. The high uptake of [^99mTc]HYNIC-(Ser)3-LTVPWY in U-87 MG tumors (2.08 ± 0.07% ID/g) at 1 h p.i. dropped to 0.04 ± 0.03% ID/g at 4 h p.i. […] Tumor-to-blood, tumor-to-muscle and tumor-to-kidney ratios reported were much lower for [^99mTc]CGGG-LTVSPWY and [^99mTc]CSSS-LTVSPWY compared to the current radiopeptides.

[2] = Water solubility (remarks); format: physicochemical; details: authors' remark on the non-pegylated peptide
MDA-MB-435 tumors = details: in vivo; cited from earlier work
Experimental: Besides A9 peptide other HER2-targeting peptides have been explored and investigated. […] However, the tumor uptake reduced to 0.10 ± 0.02% ID/g at 24 h p.i. which is much lower than the values of presently studied radiopeptides. […] Tumor-to muscle ra ...

[3] = tumor / blood, n = 3, read-out: Tumor-to-blood ratio
[4] = tumor / muscle, n = 3, read-out: Tumor-to-muscle ratio

T1 sequence (P04626 23-1255): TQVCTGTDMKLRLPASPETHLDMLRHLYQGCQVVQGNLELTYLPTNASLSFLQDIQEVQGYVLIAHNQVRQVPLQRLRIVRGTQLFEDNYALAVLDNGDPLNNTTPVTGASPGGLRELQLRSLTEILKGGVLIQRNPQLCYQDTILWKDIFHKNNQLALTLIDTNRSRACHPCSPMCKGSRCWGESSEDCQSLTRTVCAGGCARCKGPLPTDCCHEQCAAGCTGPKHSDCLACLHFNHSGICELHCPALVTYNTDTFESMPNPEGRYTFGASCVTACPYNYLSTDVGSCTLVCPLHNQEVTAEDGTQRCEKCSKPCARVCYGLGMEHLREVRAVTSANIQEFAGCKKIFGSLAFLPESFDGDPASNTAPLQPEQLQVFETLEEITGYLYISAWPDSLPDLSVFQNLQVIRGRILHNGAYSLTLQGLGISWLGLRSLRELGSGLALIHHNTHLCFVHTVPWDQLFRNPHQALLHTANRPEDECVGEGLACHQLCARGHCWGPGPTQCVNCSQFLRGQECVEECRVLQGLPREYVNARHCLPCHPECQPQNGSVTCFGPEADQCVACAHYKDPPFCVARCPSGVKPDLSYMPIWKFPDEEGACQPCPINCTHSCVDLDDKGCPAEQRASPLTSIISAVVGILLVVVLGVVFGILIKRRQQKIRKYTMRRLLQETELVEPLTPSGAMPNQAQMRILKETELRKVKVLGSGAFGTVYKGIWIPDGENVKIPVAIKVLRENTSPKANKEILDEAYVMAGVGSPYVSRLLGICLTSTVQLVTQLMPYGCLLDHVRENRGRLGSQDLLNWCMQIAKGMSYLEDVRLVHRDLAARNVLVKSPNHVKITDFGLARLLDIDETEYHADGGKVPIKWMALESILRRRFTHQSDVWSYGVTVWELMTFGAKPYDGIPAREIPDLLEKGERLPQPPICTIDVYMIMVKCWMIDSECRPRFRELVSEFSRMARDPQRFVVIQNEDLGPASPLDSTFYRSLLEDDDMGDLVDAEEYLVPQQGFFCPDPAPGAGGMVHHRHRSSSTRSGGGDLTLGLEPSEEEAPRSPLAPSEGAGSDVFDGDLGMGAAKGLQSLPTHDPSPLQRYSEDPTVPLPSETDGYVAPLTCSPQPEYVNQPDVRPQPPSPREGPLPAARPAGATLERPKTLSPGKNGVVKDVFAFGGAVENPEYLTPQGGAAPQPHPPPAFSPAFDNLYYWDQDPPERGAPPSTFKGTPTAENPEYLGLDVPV

Molecule | intact radiopeptide after 6 h in human serum [%] | tissue to tissue ratio at 3 h [1, 3] | tissue to tissue ratio at 24 h [1, 3] | tissue to tissue ratio at 3 h [1, 4] | tissue to tissue ratio at 24 h [1, 4] | tissue to tissue ratio at 48 h [1, 4] | Kd (HER2) [nM] | Degradation on incubation with human serum (radio-HPLC) (Human serum stability) | further results
CC(C)[C@H](NC(=O)[C@H](C)NC(=O)[C@@H](NC(=O)[C@H](CC(N)=O)NC(=O)[C@@H](NC(=O)[C@H](CC(=O)O)NC(=O)[C@H](CCC(N)=O)NC(=O)CN1CCN(CC(=O)O)CCN(CC(=O)O)CCN(CC(=O)O)CC1)C(C)C)[C@@H](C)O)C(=O)N[C@@H](C)C(=O)N[C@@H](Cc1c[nH]c2ccccc12)C(N)=O ({DOTA}-QDVNTAVAW-NH2) | > 95 |  |  |  |  |  |  |  | 
CC(C)[C@H](NC(=O)[C@H](C)NC(=O)[C@@H](NC(=O)[C@H](CC(N)=O)NC(=O)[C@@H](NC(=O)[C@H](CC(=O)O)NC(=O)[C@H](CCC(N)=O)NC(=O)CN1CCN(CC(=O)O)CCN(CC(=O)O)CCN(CC(=O)O)CC1)C(C)C)[C@@H](C)O)C(=O)N[C@@H](C)C(=O)N[C@@H](Cc1c[nH]c2ccccc12)C(N)=O [[^177Lu]DOTA-A9, metal not drawn] ({DOTA}-QDVNTAVAW-NH2) |  | 3.4 ± 0.49 | 7.42 ± 1.11 | 8.42 ± 0.04 | 8.09 ± 2.21 | 10 ± 1.57 | 48.4 ± 1.37 | no degradation | 
HYNIC-(Ser)3-LTVPWY [[^99mTc]HYNIC-(Ser)3-LTVPWY, Tc-99m-labeled peptide targeting HER2 receptors] |  |  |  |  |  |  |  |  | Tumor-to-blood ratio (U-87 MG tumors): 3.39; Tumor-to-kidney ratio (U-87 MG tumors): 0.24; Tumor-to-muscle ratio (U-87 MG tumors): 3.98
CC(C)[C@H](NC(=O)[C@H](C)NC(=O)[C@@H](NC(=O)[C@H](CC(N)=O)NC(=O)[C@@H](NC(=O)[C@H](CC(=O)O)NC(=O)[C@H](CCC(N)=O)NC(=O)CCOCCOCCOCCOCCOCCNC(=O)CN1CCN(CC(=O)O)CCN(CC(=O)O)CCN(CC(=O)O)CC1)C(C)C)[C@@H](C)O)C(=O)N[C@@H](C)C(=O)N[C@@H](Cc1c[nH]c2ccccc12)C(N)=O [[^177Lu]DOTA-PEG4-A9, metal not drawn] ({DOTA-PEG5}-QDVNTAVAW-NH2) | > 95 | 3.85 ± 0.02 | 8.87 ± 1.51 | 15.7 ± 2.06 | 13.3 ± 0.03 | 30 ± 2.83 | 55.7 ± 12.3 | no change in radiochromatogram | tissue uptake at 3 h ([1]; SKBR3 tumor, maximum observed at 3 h p.i., n = 3): 2.04 ± 0.22 %ID/g; tissue to tissue ratio at 48 h [1, 3]: 15 ± 1.42
CC(C)[C@H](NC(=O)[C@H](C)NC(=O)[C@@H](NC(=O)[C@H](CC(N)=O)NC(=O)[C@@H](NC(=O)[C@H](CC(=O)O)NC(=O)[C@H](CCC(N)=O)NC(=O)CN1CCN(CC(=O)O)CCN(CC(=O)O)CCN(CC(=O)O)CC1)C(C)C)[C@@H](C)O)C(=O)N[C@@H](C)C(=O)N[C@@H](Cc1c[nH]c2ccccc12)C(N)=O [DOTA-A9] ({DOTA}-QDVNTAVAW-NH2) |  |  |  |  |  |  |  |  | Solubility [2]: no solubility issues
DOTA(GSG)-KCCYSL [[^111In]DOTA(GSG)-KCCYSL, In-111 labeled HER2-targeting KCCYSL peptide] |  |  |  |  |  |  |  |  | Maximum tumor uptake (MDA-MB-435 tumors): 2.12 ± 0.32 % ID/g; Tumor-to-blood ratio (MDA-MB-435 tumors): 10:1; Tumor-to-muscle ratio (MDA-MB-435 tumors): 0.5:1
